Results reported in ChEMBL document CHEMBL5260845, “Flavone-based arylamides as potential anticancers: Design, synthesis and in vitro cell-based/cell-free evaluations” (2020).
Active and inactive are the calls of the source. The rule behind the calls is not given here.

Tests used:
[1] = tested on: HOP-92; experiment: Antiproliferative activity against human HOP-92 cells assessed as cell growth inhibition at 10 uM by SRB assay; format: functional, cell-based
[2] = tested on: SN12C; experiment: Antiproliferative activity against human SN12C cells assessed as inhibition of cell growth at 10 uM by SRB assay relative to control; format: functional
[3] = tested on: Malme-3M; experiment: Antiproliferative activity against human Malme-3M cells assessed as cell growth inhibition at 10 uM by SRB assay relative to control; format: functional
[4] = tested on: NCI-H226; experiment: Antiproliferative activity against human NCI-H226 cells assessed as cell growth inhibition at 10 uM by SRB assay; format: functional
[5] = tested on: MOLT-4; experiment: Antiproliferative activity against human MOLT-4 cells assessed as cell growth inhibition at 10 uM by SRB assay; format: functional, cell-based
[6] = tested on: SNB-19; experiment: Antiproliferative activity against human SNB-19 cells assessed as cell growth inhibition at 10 uM by SRB assay relative to control; format: functional
[7] = tested on: ACHN; experiment: Antiproliferative activity against human ACHN cells assessed as inhibition of cell growth at 10 uM by SRB assay relative to control; format: functional; details: pooled result: one value given for 2 cell lines, strains, targets or settings
[8] = tested on: SR; experiment: Antiproliferative activity against human SR cells assessed as cell growth inhibition at 10 uM by SRB assay; format: functional, cell-based
[9] = tested on: SF-539; experiment: Antiproliferative activity against human SF-539 cells assessed as cell growth inhibition at 10 uM by SRB assay relative to control; format: functional
[10] = tested on: NCI-H460; experiment: Antiproliferative activity against human NCI-H460 cells assessed as cell growth inhibition at 10 uM by SRB assay; format: functional, cell-based
[11] = tested on: SF-295; experiment: Antiproliferative activity against human SF-295 cells assessed as cell growth inhibition at 10 uM by SRB assay relative to control; format: functional
[12] = tested on: HOP-62; experiment: Antiproliferative activity against human HOP-62 cells assessed as cell growth inhibition at 10 uM by SRB assay; format: functional, cell-based
[13] = tested on: NCI-H322M; experiment: Antiproliferative activity against human NCI-H322M cells assessed as cell growth inhibition at 10 uM by SRB assay; format: functional, cell-based
[14] = tested on: SK-MEL-2; experiment: Antiproliferative activity against human SK-MEL-2 cells assessed as cell growth inhibition at 10 uM by SRB assay relative to control; format: functional
[15] = tested on: K562; experiment: Antiproliferative activity against human K562 cells assessed as cell growth inhibition at 10 uM by SRB assay; format: functional, cell-based
[16] = tested on: SF-295; experiment: Antiproliferative activity against human SF-295 cells assessed as cell growth inhibition at 10 uM by SRB assay; format: functional, cell-based
[17] = tested on: CCRF-CEM; experiment: Antiproliferative activity against human CCRF-CEM cells assessed as cell growth inhibition at 10 uM by SRB assay; format: functional, cell-based
[18] = tested on: Hs-578T; experiment: Antiproliferative activity against human Hs-578T cells assessed as inhibition of cell growth at 10 uM by SRB assay relative to control; format: functional
[19] = tested on: SK-MEL-28; experiment: Antiproliferative activity against human SK-MEL-28 cells assessed as cell growth inhibition at 10 uM by SRB assay relative to control; format: functional
[20] = tested on: NCI-H522; experiment: Antiproliferative activity against human NCI-H522 cells assessed as cell growth inhibition at 10 uM by SRB assay; format: functional, cell-based
[21] = tested on: MDA-MB-231; experiment: Antiproliferative activity against human MDA-MB-231 cells assessed as inhibition of cell growth at 10 uM by SRB assay relative to control; format: functional
[22] = tested on: IGROV-1; experiment: Antiproliferative activity against human IGROV-1 cells assessed as cell growth inhibition at 10 uM by SRB assay relative to control; format: functional
[23] = tested on: HL-60; experiment: Antiproliferative activity against human HL-60 cells assessed as cell growth inhibition at 10 uM by SRB assay; format: functional, cell-based
[24] = tested on: EKVX; experiment: Antiproliferative activity against human EKVX cells assessed as cell growth inhibition at 10 uM by SRB assay; format: functional
[25] = tested on: OVCAR-4; experiment: Antiproliferative activity against human OVCAR-4 cells assessed as cell growth inhibition at 10 uM by SRB assay relative to control; format: functional
[26] = tested on: A498; experiment: Antiproliferative activity against human A498 cells assessed as inhibition of cell growth at 10 uM by SRB assay relative to control; format: functional
[27] = tested on: UACC-257; experiment: Antiproliferative activity against human UACC-257 cells assessed as cell growth inhibition at 10 uM by SRB assay relative to control; format: functional
[28] = tested on: SF-268; experiment: Antiproliferative activity against human SF-268 cells assessed as cell growth inhibition at 10 uM by SRB assay relative to control; format: functional
[29] = tested on: OVCAR-3; experiment: Antiproliferative activity against human OVCAR-3 cells assessed as cell growth inhibition at 10 uM by SRB assay relative to control; format: functional; details: pooled result: one value given for 2 cell lines, strains, targets or settings
[30] = tested on: UACC-62; experiment: Antiproliferative activity against human UACC-62 cells assessed as cell growth inhibition at 10 uM by SRB assay relative to control; format: functional
[31] = tested on: HCT-116; experiment: Antiproliferative activity against human HCT-116 cells assessed as cell growth inhibition at 10 uM by SRB assay relative to control; format: functional
[32] = tested on: MDA-MB-435; experiment: Antiproliferative activity against human MDA-MB-435 cells assessed as cell growth inhibition at 10 uM by SRB assay relative to control; format: functional
[33] = tested on: RXF 393; experiment: Antiproliferative activity against human RXF 393 cells assessed as inhibition of cell growth at 10 uM by SRB assay relative to control; format: functional
[34] = tested on: A549; experiment: Antiproliferative activity against human A549 cells assessed as cell growth inhibition at 10 uM by SRB assay; format: functional, cell-based
[35] = tested on: DU-145; experiment: Antiproliferative activity against human DU-145 cells assessed as inhibition of cell growth at 10 uM by SRB assay relative to control; format: functional
[36] = tested on: U-251; experiment: Antiproliferative activity against human U-251 cells assessed as cell growth inhibition at 10 uM by SRB assay relative to control; format: functional
[37] = tested on: SK-MEL-5; experiment: Antiproliferative activity against human SK-MEL-5 cells assessed as cell growth inhibition at 10 uM by SRB assay relative to control; format: functional
[38] = tested on: LOX IMVI; experiment: Antiproliferative activity against human LOX IMVI cells assessed as cell growth inhibition at 10 uM by SRB assay relative to control; format: functional
[39] = tested on: SNB-75; experiment: Antiproliferative activity against human SNB-75 cells assessed as cell growth inhibition at 10 uM by SRB assay relative to control; format: functional
[40] = tested on: 786-0; experiment: Antiproliferative activity against human 786-0 cells assessed as inhibition of cell growth at 10 uM by SRB assay relative to control; format: functional
[41] = tested on: RPMI-8226; experiment: Antiproliferative activity against human RPMI-8226 cells assessed as cell growth inhibition at 10 uM by SRB assay; format: functional, cell-based
[42] = tested on: OVCAR-8; experiment: Antiproliferative activity against human OVCAR-8 cells assessed as cell growth inhibition at 10 uM by SRB assay relative to control; format: functional
[43] = tested on: M14; experiment: Antiproliferative activity against human M14 cells assessed as cell growth inhibition at 10 uM by SRB assay relative to control; format: functional
[44] = tested on: NCI-H23; experiment: Antiproliferative activity against human NCI-H23 cells assessed as cell growth inhibition at 10 uM by SRB assay; format: functional
[45] = tested on: HCT-116; experiment: Antiproliferative activity against human HCT-116 cells assessed as cell growth inhibition at 10 uM by SRB assay; format: functional, cell-based
[46] = tested on: HT-29; experiment: Antiproliferative activity against human HT-29 cells assessed as cell growth inhibition at 10 uM by SRB assay; format: functional, cell-based
[47] = tested on: KM12; experiment: Antiproliferative activity against human KM12 cells assessed as cell growth inhibition at 10 uM by SRB assay; format: functional, cell-based
[48] = tested on: HCC 2998; experiment: Antiproliferative activity against human HCC 2998 cells assessed as cell growth inhibition at 10 uM by SRB assay; format: functional, cell-based
[49] = tested on: RPMI-8226; experiment: Antiproliferative activity against human RPMI-8226 cells assessed as cell growth inhibition at 10 uM by SRB assay relative to control; format: functional
[50] = tested on: HOP-62; experiment: Antiproliferative activity against human HOP-62 cells assessed as cell growth inhibition at 10 uM by SRB assay relative to control; format: functional
[51] = tested on: NCI-H460; experiment: Antiproliferative activity against human NCI-H460 cells assessed as cell growth inhibition at 10 uM by SRB assay relative to control; format: functional
[52] = tested on: HCT-15; experiment: Antiproliferative activity against human HCT-15 cells assessed as cell growth inhibition at 10 uM by SRB assay; format: functional, cell-based
[53] = tested on: PC-3; experiment: Antiproliferative activity against human PC-3 cells assessed as inhibition of cell growth at 10 uM by SRB assay relative to control; format: functional
[54] = tested on: SW-620; experiment: Antiproliferative activity against human SW620 cells assessed as cell growth inhibition at 10 uM by SRB assay; format: functional, cell-based
[55] = tested on: Ovarian cancer cell line; experiment: Antiproliferative activity against human ovarian cancer cells assessed as cell growth inhibition at 10 uM by SRB assay relative to control; format: functional
[56] = tested on: COLO 205; experiment: Antiproliferative activity against human COLO 205 cells assessed as cell growth inhibition at 10 uM by SRB assay; format: functional, cell-based
[57] = tested on: Lung cancer cell line; experiment: Antiproliferative activity against human lung cancer cells assessed as cell growth inhibition at 10 uM by SRB assay relative to control; format: functional
[58] = tested on: Prostatic carcinoma cell; experiment: Antiproliferative activity against human prostatic carcinoma cells assessed as cell growth inhibition at 10 uM by SRB assay relative to control; format: functional

`COc1cc2oc(-c3cccc(NC(=O)c4ccc(Br)cc4)c3)cc(=O)c2c(OC)c1OC` was tested, and the inhibition [1] was “Active”, the inhibition at 10 µM [2] was 63.6% and the inhibition at 10 µM [3] was 39.1%. For the same compound, the inhibition [4] was “Active”, the inhibition at 10 µM [4] was less than 50% and the inhibition [5] was “Active”. For the same compound, the inhibition at 10 µM [6] was 41.2%, the inhibition at 10 µM [7] was 63.6% and the inhibition [8] was “Active”. For the same compound, the inhibition at 10 µM [9] was 47.1%, the inhibition [10] was “Active” and the inhibition at 10 µM [11] was greater than 50%. The inhibition [12] was “Active”, the inhibition [13] was “Active” and the inhibition at 10 µM ([14]; Homo sapiens, SK-MEL-2, dose 10 µM) was no more than 46%. The “inhibition (INH)” value ([14]; dose 10 µM) was 39.07%, the inhibition [15] was “Active” and the inhibition [16] was “Active”. For the same compound, the inhibition [17] was “Active”, the inhibition at 10 µM [18] was 73.4% and the inhibition at 10 µM [19] was 50.8%. For the same compound, the inhibition [20] was “Active”, the inhibition at 10 µM [21] was 73.4% and the inhibition at 10 µM [22] was 52.9%. For the same compound, the inhibition [23] was “Active”, the inhibition [24] was “Active” and the inhibition at 10 µM [24] was less than 50%. It also gave an inhibition at 10 µM [25] of 52.9%, an inhibition at 10 µM [26] of 63.6% and an inhibition at 10 µM [27] of 39.1%. It also gave an inhibition at 10 µM [28] greater than 50%, an inhibition at 10 µM [29] of 52.9% and an inhibition at 10 µM [30] of 39.1%. The inhibition at 10 µM [31] was 84%, the inhibition at 10 µM [32] was 50.8% and the inhibition at 10 µM [33] was 63.6%. For the same compound, the inhibition [34] was “Active”, the inhibition at 10 µM [35] was greater than 50% and the inhibition at 10 µM [36] was greater than 50%. The inhibition at 10 µM [37] was 50.8%, the inhibition at 10 µM [38] was 50.8% and the inhibition at 10 µM [39] was greater than 50%. For the same compound, the inhibition at 10 µM [40] was 84%, the inhibition [41] was “Active” and the inhibition at 10 µM [42] was 52.9%. For the same compound, the inhibition at 10 µM [43] was 50.8%, the inhibition [44] was “Active” and the inhibition at 10 µM [44] was less than 50%.
For `COc1cc2oc(-c3cccc(C(=O)Nc4ccc(C#N)cc4)c3)cc(=O)c2c(O)c1OC`, the inhibition at 10 µM [3] was 52.3%, the inhibition [4] was “Active” and the inhibition [45] was “Active”. The inhibition [46] was “Active”, the inhibition at 10 µM [19] was 67.2% and the inhibition [47] was “Active”. For the same compound, the inhibition [48] was “Active”, the inhibition at 10 µM [49] was 82.6% and the inhibition at 10 µM [50] was 31.8%. For the same compound, the inhibition at 10 µM [25] was 88.3%, the inhibition at 10 µM [51] was 81.1% and the inhibition [52] was “Active”. For the same compound, the inhibition at 10 µM [30] was 50.5%, the inhibition at 10 µM [53] was 92.1% and the inhibition [34] was “Active”. For the same compound, the inhibition at 10 µM [35] was 65.8%, the inhibition [54] was “Active” and the inhibition at 10 µM [55] was greater than 50%. The inhibition [56] was “Active”, the inhibition at 10 µM [42] was 70.9% and the inhibition at 10 µM [57] was greater than 50%. For the same compound, the inhibition [44] was “Active” and the inhibition at 10 µM [58] was greater than 50%.
